Measurements: DBAASP
In brackets after ≈: the same amount, converted by molar mass. Values belong to the molecule of their own block, whether it stands above or below them.

Columns and labels:
Experiment in all cases: ≥ marks a high value that may be exact or a test limit, other limits are often not marked, values filed in µg/mL are converted to µM
[1] = test system: Staphylococcus epidermidis ATCC 1435
[2] = test system: Pseudomonas aeruginosa ATCC BAA-427
Staphylococcus aureus = test system: Staphylococcus aureus
Acinetobacter baumannii = test system: Acinetobacter baumannii
[3] = test system: Klebsiella pneumoniae ATCC 27736
[4] = test system: Pseudomonas aeruginosa ATCC 10662
[5] = test system: Bacillus subtilis ATCC 6633
[6] = test system: Escherichia coli ATCC 25922
[7] = test system: Candida albicans ATCC 10231
[8] = test system: Candida tropicalis PCM 2681
[9] = test system: Staphylococcus aureus ATCC 25923
[10] = test system: Pseudomonas aeruginosa ATCC 9027
[11] = test system: Staphylococcus epidermidis ATCC 14490
[12] = test system: Klebsiella pneumoniae ATCC 200603
[13] = test system: Mycobacterium tuberculosis CSU87
[14] = test system: Mycobacterium tuberculosis 173
[15] = test system: Mycobacterium tuberculosis 212
[16] = test system: Mycobacterium tuberculosis 411
[17] = test system: Mycobacterium tuberculosis H37Rv
Bacillus cereus AS1.126 = test system: Bacillus cereus AS1.126
[18] = test system: Lactococcus lactis AS1.1690
[19] = test system: Staphylococcus aureus AS1.72
Escherichia coli AS1.349 = test system: Escherichia coli AS1.349
[20] = test system: Enterococcus faecium CGMCC 1.2334
[21] = test system: Enterococcus faecalis CGMCC 1.595
[22] = test system: Pseudomonas aeruginosa CGMCC 1.860

MIC [1]: 0.593 µM (≈ 1.5 µg/mL)
MIC [2]: 12 µM (≈ 30.3 µg/mL)
MIC (Staphylococcus aureus): 1.23 µM (≈ 3.1 µg/mL)
MIC (Acinetobacter baumannii): 1.23 µM (≈ 3.1 µg/mL)
MIC [3]: 8 µM (≈ 20.2 µg/mL)
MIC [4]: 9.88 µM (≈ 25 µg/mL)
MIC [5]: 8 µM (≈ 20.2 µg/mL)
Structure (SMILES): CC[C@H](C)[C@H](NC(=O)CNC(=O)[C@H](CCCN=C(N)N)NC(=O)[C@H](Cc1ccccc1)NC(=O)[C@@H](NC(=O)[C@H](Cc1cnc[nH]1)NC(=O)[C@H](Cc1cnc[nH]1)NC(=O)[C@H](Cc1ccccc1)NC(=O)[C@@H](N)Cc1ccccc1)[C@@H](C)CC)C(=O)N[C@H](C(=O)N[C@@H](Cc1cnc[nH]1)C(=O)N[C@H](C(=O)NCC(=O)N[C@@H](CCCCN)C(=O)N[C@H](C(=O)N[C@@H](C)C(=O)N[C@@H](Cc1cnc[nH]1)C(=O)N[C@@H](CCCN=C(N)N)C(=O)N[C@@H](CC(C)C)C(=O)N[C@H](C(=O)N[C@H](C(=O)NCC(N)=O)[C@@H](C)O)C(C)C)[C@@H](C)O)C(C)C)C(C)C [FFHHIFRGIVHVGKTAHRLVTG]

MIC [6]: > 706 µM
MIC [7]: > 706 µM
MIC [8]: ≥ 706 µM
MIC [9]: > 706 µM
MIC [10]: > 706 µM
MIC [11]: ≥ 706 µM
MIC [12]: ≥ 706 µM
MIC [5]: ≥ 706 µM
Structure (SMILES): CC[C@H](C)[C@H](N)C(=O)N[C@H]1CSSC[C@@H](C(=O)N[C@H](C(=O)O)[C@@H](C)CC)NC(=O)[C@H](Cc2cnc[nH]2)NC(=O)[C@H](Cc2cnc[nH]2)NC1=O [ICHHCI]

MIC [13]: ≥ 207 µM
MIC [14]: ≥ 413 µM
MIC [15]: ≥ 413 µM
MIC [16]: ≥ 207 µM
MIC [17]: ≥ 413 µM
Structure (SMILES): CC[C@H](C)[C@H](N)C(=O)N[C@@H](CC(C)C)C(=O)N[C@@H](CC(C)C)C(=O)N[C@@H](CCCCN)C(=O)N[C@@H](CCCCN)C(=O)N[C@@H](CC(C)C)C(=O)N[C@@H](CC(C)C)C(=O)N[C@@H](CCCCN)C(=O)N[C@@H](CCCCN)C(=O)N[C@H](C(N)=O)[C@@H](C)CC [ILLKKLLKKI]

MIC (Bacillus cereus AS1.126): 6.25 µM (≈ 10.1 µg/mL)
MIC [18]: 6.25 µM (≈ 10.1 µg/mL)
MIC [19]: ≥ 50 µM
MIC (Escherichia coli AS1.349): 25 µM (≈ 40.6 µg/mL)
MIC [20]: 6.25 µM (≈ 10.1 µg/mL)
MIC [21]: 3.13 µM (≈ 5.08 µg/mL)
MIC [22]: 3.13 µM (≈ 5.08 µg/mL)
Structure (SMILES): NC(N)=NCCC[C@H](NC(=O)[C@H](Cc1cnc[nH]1)NC(=O)[C@H](Cc1c[nH]c2ccccc12)NC(=O)[C@H](Cc1ccccc1)NC(=O)[C@H](CCCN=C(N)N)NC(=O)[C@H](CCCN=C(N)N)NC(=O)[C@H](Cc1c[nH]c2ccccc12)NC(=O)[C@H](Cc1cnc[nH]1)NC(=O)[C@H](CCCN=C(N)N)NC(=O)[C@@H](N)Cc1c[nH]c2ccccc12)C(=O)O [WRHWRRFWHR]
